Values quoted from earlier work in patent US20250325256A1, “LIPID PATCH” (SENSACH AB, priority 2021, published 2025).

Settings: cited from earlier work

SMILES: CCCCCCCC/C=C\CCCCCCCC(=O)OCC(O)CO (stereo not shown) [GMO, Glycerol monooleate]
- solubility in water: around 10^−6 M
